The values below come from patent publication US20140328940A1, “MODULATION OF AXON DEGENERATION” (Genentech, Inc., priority 2009, published 2014).

Entries after “also recorded” stand apart in the source; their conditions may differ. *1 amine or outer side, *2 acyl side, *3 side chain or, on linkers, in order; H or OH if unused. Where a SMILES comes first, the peptide text is derived from it. Bridges are numbered along the chain shown (N, C = ends). Roman numbers before positions name the chains, in order. [ ]: non-standard residue; d: D form. Actinocin(9to1) = Cc1c2oc3c(C)ccc(C(=O)[*:1])c3nc-2c(C(=O)[*:2])c(N)c1=O; NMeV = CN[C@H](C(=O)O)C(C)C; Sar = CNCC(=O)O

Format in all cases: cell-based, mouse
Assay [1] relates to DRG neurons (axon vs. cell body compartment). Nature of the assay: Campenot chamber local axon degeneration (anti-NGF in axon compartment). How it is done: Teflon dividers (Tyler Research) were cleaned by washing in water and wiping them clean of any residual grease. Dividers were then soaked in Nochromix (Godax Laboratories)/sulfuric acid overnight, rinsed five times in distilled and autoclaved water (SQ water), boiled for 30 minutes, and then air-dried before use
Mouse laminin (5 μg/ml in sterile filtered water; Invitrogen) was added to PDL coated 35 mm dishes (BD Biosciences) and they were incubated for 1 hour at 37° C., followed by two rinses in SQ water. The dishes were vacuum-dried and then air-dried in a laminar flow hood for 15 minutes. Prepared dishes were then scored with a pin rake (Tyler Research). […] High vacuum grease (VWR) was added to each Teflon divider under a dissection scope. The laminin coated PDL dishes were inverted and dropped onto the Teflon divider, with additional pressure added by use of a toothpick in the non-track-containing regions. Dishes were incubated for 1 hour at 37° C. Five hundred microliters of NBM+MC (50 ng/ml NGF) solution was added to each of the side compartments, and a grease barrier was added in front of the center cell slot.
Free E13.5 spinal cords were dissected from mouse embryos and placed into NBM+MC (25 ng/ml NGF) solution. DRGs were detached from the spinal cord with a tungsten needle. An NBM+MC-lubricated P200 pipette was used to move DRGs into a 1.5 ml tube. DRGs were pelleted with a tabletop centrifuge for 30 seconds. The supernate was discarded and 0.05% Trypsin/EDTA (cold) was added. The pellet was resolubilized with a pipette and incubated at 37° C. for 15 minutes with constant agitation (650 RPM). The sample was again centrifuged and the supernate discarded. The pellet was resuspended in warm NBM+MC (50 ng/ml NGF) solution and triturated with a flamed glass pipette 20 times, followed by trituration with a fire-bored glass pipette another 20 times. The samples were again centrifuged and the resulting pellets were resuspended in 0.5 ml NBM+MC (50 ng/ml NGF) solution. The cells were diluted to a final concentration of 2.5×10^6 cells/ml. The cell suspensions were loaded into a 1 ml syringe with a 22 gauge needle. The center slot of the Campenot divider was filled using the syringe (to a volume of at least 50 μl). The Campenot chamber was incubated overnight at 37° C. 2.5 ml NGF+MC (50 ng/ml NGF) solution was added to the center compartment and the grease gate was removed. The outer medium (cell body compartment) was replaced after three days with 2.5 ml NBM+MC medium (with 25 ng/ml NGF). After five days in culture, one distal compartment was washed three times with warmed NBM+MC (no NGF) solution. After the third wash, 500 μl NBM+MC (no NGF) solution was added to the axon compartment in combination with either 0.5% DMSO or an inhibitor. The cell body compartment was replaced with 2.5 ml NBM+MC medium (with 25 ng/ml NGF) containing either 0.5% DMSO or inhibitor.
After 28 hours of anti-NGF antibody treatment, 8% PFA/30% sucrose solution (see above) was added directly to the culture medium at a 1:1 dilution and incubated for 30 minutes. The Teflon divider was removed after the first 15 minutes of addition. The system was washed once with 2.5 ml PBS prior to immunostaining. Neurons were blocked in 5% BSA/0.2% triton in PBS for 30 minutes. The primary antibody Tuj1 (Covance) was added to a final dilution of 1:1000 in PBS containing 2% BSA and incubated overnight at 4° C. The dish was washed once with PBS. […] The dish was washed twice with PBS, and a 22×22 mm coverslip (VWR) was added with 350 μl of fluoromount G (Electron Microscopy Sciences). The neurons were visualized by use of a fluorescence microscope.
As described above, E13.5 DRGs were isolated and grown for 5 days in a Campenot chamber.

The test system of another assay is DRGs. The assay is described as follows: anti-NGF antibody (NGF withdrawal) screen for inhibitors of axon degeneration in DRG explants. Conditions: inhibitor 100 μM or 10 μM added 1 hour before 25 μg/ml anti-NGF; 20 hours; actin stain. How it is done: The anti-NGF antibody model described above in Example 1 was used in a screen for inhibitors of neuron or axon degeneration. A library of more than 400 small molecules (Tocris Bioscience) was tested to see which, if any, modulate degeneration observed in the presence of anti-NGF antibodies.
Mouse E13.5 embryos were dissected and placed into L15 medium (Invitrogen). The spinal cord was dissected out from the embryos with DRGs attached. The spinal cords with DRGs attached were placed into L15 medium+5% goat serum (Gibco) on ice. The DRGs were removed using a tungsten needle and the remaining spinal cord was disposed of. Eight well slides were filled with N3-F12 solution (23 ml Ham's F12, 1 ml N3 supplement, and 1 ml 1 M glucose) to which was added 25 ng/ml NGF (Roche). (N3 supplement was made by dilution of N3 100× concentrate, which was made by mixing the following ingredients, in the following order: 5.0 ml Hank's buffered saline solution (HBSS; Ca, Mg free; Invitrogen), 1.0 ml bovine serum albumin (10 mg/ml in HBSS=150 μm), 2.0 ml Transferrin (T1147-1G, human, 100 mg/ml in HBSS=1.1 mM), 1.0 ml sodium selenite (S9133-1MG, 0.01 mg/ml in HBSS 58 μM), 0.4 ml putrescine dihydrochloride (P5780-5G, 80 mg/ml in HBSS=500 mM), 0.2 ml progesterone (P8783-5G, 0.125 mg/ml in absolute ethanol=400 μM), 0.02 ml corticosterone (C2505-500MG, 2 mg/ml in absolute ethanol=5.8 mM), 0.1 ml triiodothyonine, sodium salt (T6397-100MG, 0.2 mg/ml in 0.01 N NaOH=300 μM), 0.4 ml insulin (16634-250MG, bovine pancreas, 241 U/mg, 25 mg/ml in 20 mM HCl=4.4 mM), for a total volume of 10.02 ml (can be stored at −20° C.). An N3 supplement stock was made by combining the following: 10 ml Pen/Strep (100×, Gibco), 10 ml glutamine (200 mM, Gibco), 10 ml MEM vitamins (100×, Gibco), 10 ml N3 concentrate (100×, see above), for a total volume of 40 ml. The mixture was filter sterilized using a 0.22 μm filter, and 1-2 ml aliquots were stored at −20° C.).
The DRGs were sectioned into halves and placed in the center of each well of an 8-chamber slide (BD Biocoat PDL/Laminin coated glass, Becton Dickinson). The DRGs were permitted to attach to the slide at room temperature for 5-10 minutes, followed by an overnight incubation at 37° C. Inhibitors of choice were added at a concentration of 100 μM (top row) or 10 μM (bottom row) 1 hour before adding anti NGF antibodies. The anti-NGF antibodies were added to the right half of the slide (4 wells) at a concentration of 25 μg/ml. After incubation for 20 hours at 37° C., the slides were fixed with 30% sucrose/8% paraformaldehyde (PFA) by adding 250 μl of the fix solution directly to the 250 μl of culture medium. (To make the 30% sucrose/8% PFA solution, the following ingredients were added to a 600 ml beaker including a stir bar: 250 ml 16% PFA (cat#15710-S, Electron Microscopy Sciences), 50 ml 10×PBS pH 7.4, and 150 g sucrose. The solution was mixed under low heat until dissolved, and then 6-8 drops of 1 M NaOH were added to bring the pH to 7.4. The volume was then brought to 500 ml with water in a graduated cylinder. The solution was mixed well, placed in aliquots, and frozen.) The s ides were fixed for 30 minutes, followed by washing once with PBS. All cells were labeled with an actin stain (Alexa-568 conjugated phalloidin; 1:40; Invitrogen), a membrane dye (DiO; 1:200; Invitrogen), and a DNA stain (Hoechst 33258; 1:10,000; Invitrogen) in 0.1% Triton and 1% goat serum for 2 hours at room temperature. […]

The subject of a further assay is DRG explants. Nature of the assay: pan-JNK inhibitors in NGF withdrawal assay on DRG explants. Conditions: for concentration at which most protective: DRG explants, NGF withdrawal; for protection of DRG explants from NGF-dependent degeneration: treated with anti-NGF and inhibitor. How it is done:
If DLK inhibition protects neurons from degeneration through limiting the phosphorylation of JNK2 and JNK3, then inhibitors of JNK2 or JNK3 should also protect neurons from cell death and axon degeneration. The ability of direct JNK inhibition to protect neurons against NGF withdrawal-dependent degeneration was also assessed. DRG explants were treated with anti-NGF and either pan-JNK inhibitor JNKV or JNKVIII, prior to assessment in the NGF withdrawal assay described above.

The subject of assay [2] is cerebellar granule neurons (CGNs). The assay is described as follows: serum deprivation/KCl reduction degeneration of cerebellar granule neurons. As to conditions: 5 μM; 5 mM KCl, 24 hours.
The mark [3] stands for this setting: inhibitor 5 μM in axon compartment.
The mark [4] stands for this setting: inhibitor 5 μM in cell body compartment.

Turning to `COc1ccc(CNC(=O)Nc2ncc([N+](=O)[O-])s2)cc1` [AR-A014418], the “Axon Compartment (protection of NGF-deprived axons)” value (“Axon Compartment” for short) in assay [1] (inhibitor 20 μM in axon compartment) is “No (1)”. Also, in assay [1] (inhibitor 20 μM in cell body compartment), the “Cell Body Compartment (protection of NGF-deprived axons)” value (shortened to “Cell Body Compartment”) is “Yes (1)”.
Take `Cc1c2oc3c(C)ccc(C(=O)N[C@@H]4C(=O)N[C@H](C(C)C)C(=O)N5CCC[C@H]5C(=O)N(C)CC(=O)N(C)[C@@H](C(C)C)C(=O)O[C@@H]4C)c3nc-2c(C(=O)N[C@@H]2C(=O)N[C@H](C(C)C)C(=O)N3CCC[C@H]3C(=O)N(C)CC(=O)N(C)[C@@H](C(C)C)C(=O)O[C@@H]2C)c(N)c1=O` [Actinomycin D] (I: T[dV]P[Sar][NMeV] / II: T[dV]P[Sar][NMeV]; ester I:1-I:C, II:1-II:C; linker I:N-II:N via Actinocin(9to1)): the “formation of varicosities in locally NGF-deprived axons” value in assay [1] is “large number of axons with varicosities, as well as fragmented axons”. For the same compound, the “Axon Compartment” value is “No (4)” in assay [1] (inhibitor 15 μM in axon compartment) and “failed to prevent degeneration” in assay [1] (inhibitor 15 μM in axon compartment, listed as Act D). Further, the “Cell Body Compartment” value in assay [1] (inhibitor 15 μM in cell body compartment) was “Yes (4)”; in assay [1] (inhibitor 15 μM in cell body compartment, listed as Act D), “did not degenerate; also recorded: protected from local degeneration”.
As for `OC(CN1CCNCC1)Cn1c2ccc(Br)cc2c2cc(Br)ccc21` (stereo not shown) [Bax Channel Blocker], the “Comments (observations on compounds found to protect against neurodegeneration)” value (“Comments” for short) in the assay with DRGs is “Cell bodies detach”.
Turning to `C[C@@H]1C[C@@H]([C@H](O)CC2CC(=O)NC(=O)C2)C(=O)[C@@H](C)C1` [Cycloheximide], the “Axon Compartment” value in assay [1] (setting [3]) is “No (2)”. Also, the “Cell Body Compartment” value in assay [1] (setting [4]) is given as “Yes (2)”.
Regarding `C=C[C@@]1(C)CC(=O)[C@]2(O)[C@@]3(C)[C@@H](O)CCC(C)(C)[C@@H]3[C@H](O)[C@H](OC(C)=O)[C@@]2(C)O1` [Forskolin], the “Axon Compartment” value in assay [1] (inhibitor 3 μM in axon compartment) is “Yes (2)”. Further, the “Cell Body Compartment” value in assay [1] (inhibitor 3 μM in cell body compartment) is “Yes (2)”.
`O=C1NC(=O)C(c2cn(CCCO)c3ncccc23)=C1c1cnccn1` [GSK3 inhibitor XI]: in assay [1] (inhibitor 30 μM in axon compartment, anti-NGF on axons 28 hours, number in parentheses not explained), the “Axon Compartment” value is “No (2)”. In addition, the “Cell Body Compartment” value in assay [1] (inhibitor 30 μM in cell body compartment, anti-NGF on axons 28 hours, number in parentheses not explained) is “Yes (2)”.
For `CCOc1nc(NC(=O)Cc2cc(OC)ccc2OC)cc(N)c1C#N` [JNKVIII], in the assay with DRG explants, the “concentration at which most protective” value was 4 µM and the “protection of DRG explants from NGF-dependent degeneration” value is listed as “able to protect”.
For `N#C/C(=C1/Nc2ccccc2S1)c1ccnc(NCCc2cccnc2)n1` [JNKV], in that order: 5 µM and “able to protect”.
On to `C=C[C@@]1(C)CC(=O)[C@]2(O)[C@@]3(C)[C@@H](O)CCC(C)(C)[C@@H]3[C@H](OC(=O)CCN(C)C)[C@H](OC(C)=O)[C@@]2(C)O1` [NKH 477], for which, in the assay on DRGs, the “Comments” value was “Partial”.
Take `C[S+]([O-])c1ccc(-c2nc(-c3ccc(F)cc3)c(-c3ccncc3)[nH]2)cc1.Cl` (stereo not shown) [SB 203580 HCl]: the “Comments” value with DRGs is recorded as “Partial”.
`O=C1c2ccccc2-c2n[nH]c3cccc1c23` [SP600125]: the “Axon Compartment” value in assay [1] (setting [3]) and in assay [1] (inhibitor 10 μM in axon compartment) was “Yes (1)” each time. In addition, the “Cell Body Compartment” value in assay [1] (setting [4]) and in assay [1] (inhibitor 10 μM in cell body compartment) was “Yes (1)” throughout. Further, the “protection of cerebellar granule neurons from serum deprivation/KCl reduction” value in assay [2] is “protect”.
Turning to `C[C@@H](NC(=O)/C(C#N)=C/c1ccc(O)c(O)c1)c1ccccc1` [Tyrphostin B44], in the assay on DRGs, the “Comments” value is given as “Partial”.
As to `CCN(c1ccccc1)c1cc(NC)[n+](C)c(C)n1` [ZD7288], in assay [1] (setting [3]), the “Axon Compartment” value was “No (3)”. In addition, the “Cell Body Compartment” value in assay [1] (setting [4]) is “Yes (3)”.
